Data from the supplement of paper PMC11061612.

Experiments:
[1] = test system: KYSE-270 (Esophageal Squamous Cell Carcinoma); experiment: combination Emax (second highest fraction inhibited in the dose matrix, 72 h); higher = more inhibition; extreme values may be limits of the assay
Method in brief: (§1)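 Cell lines in DMEM/F12 or RPMI with 10% FBS were plated in 1536-well plates, held 24 hours at 37°C, 5% CO2, then given two-drug dose matrices for 72 hours (DMSO typically 0.2%). Viability was read by CellTiter-Glo 2.0 luminescence and scaled as inhibition from 0 (vehicle wells) to 1 (blank wells). Combination Emax is the second-highest inhibition in the matrix; Bliss excess is observed combination effect minus expected EA + EB − EA·EB, EA and EB being single-agent effects.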

[2] = test system: H9 (T-Cell Non-Hodgkin's Lymphoma); experiment: as above
Method in brief: as §1

SMILES	combination Emax [1]	combination Emax [2]
COc1cccc(OCCCN)c1-c1cc(Nc2cnc(C#N)cn2)n[nH]1 [Prexasertib] + C[C@@H]1COCCN1C2=NC(=NC(=C2)C3(CC3)[S@](=N)(=O)C)C4=C5C=CNC5=NC=C4 [AZD6738] (first compound max 1 µM, 7x7, partner max 10 µM)	0.999	1
CC1(C)CCC(CN2CCN(c3ccc(C(=O)NS(=O)(=O)c4ccc(NCC5CCOCC5)c([N+](=O)[O-])c4)c(Oc4cnc5[nH]ccc5c4)c3)CC2)=C(c2ccc(Cl)cc2)C1 [Venetoclax] + COc1cc(Nc2ncc3c(n2)-c2ccc(Cl)cc2C(c2c(F)cccc2OC)=NC3)ccc1C(=O)O [Alisertib] (first compound max 1 µM, 7x7, partner max 10 µM)	0.627	0.802
Cc1cc2ncnn2cc1Nc1ncc2c(n1)n(C1CCOCC1)c(=O)n2C [AZD7648] + C[C@@H]1COCCN1C2=NC(=NC(=C2)C3(CC3)[S@](=N)(=O)C)C4=C5C=CNC5=NC=C4 [AZD6738] (first compound max 10 µM, 7x7, partner max 10 µM)	0.717	0.964
CCc1c2c(nc3ccc(O)cc13)-c1cc3c(c(=O)n1C2)COC(=O)[C@]3(O)CC [SN-38] + O=C(c1cc(Cc2n[nH]c(=O)c3ccccc23)ccc1F)N1CCN(C(=O)C2CC2)CC1 [Olaparib] (first compound max 0.3 µM, 7x7, partner max 10 µM)	0.949	1
CCc1c2c(nc3ccc(O)cc13)-c1cc3c(c(=O)n1C2)COC(=O)[C@]3(O)CC [SN-38] + CN(C)CCCOc1ccc(-c2ccc3ncc4c(c3c2)n(C2CCOCC2)c(=O)n4C)cn1 [AZD0156] (first compound max 0.3 µM, 7x7, partner max 1 µM)	0.946	1
Cc1c2c(nn1C)CSCc1cc(n(C)n1)CSc1cc(c3ccccc3c1)OCCCc1c(C(=O)O)n(C)c3c-2c(Cl)ccc13 [AZD5991] + CCN(CCO)CCCOc1ccc2c(Nc3cc(CC(=O)Nc4cccc(F)c4)[nH]n3)ncnc2c1 [AZD2811] (first compound max 1 µM, 7x7, partner max 1 µM)	0.926	0.959
Cc1c2c(nn1C)CSCc1cc(n(C)n1)CSc1cc(c3ccccc3c1)OCCCc1c(C(=O)O)n(C)c3c-2c(Cl)ccc13 [AZD5991] + CC1(C)CCC(CN2CCN(c3ccc(C(=O)NS(=O)(=O)c4ccc(NCC5CCOCC5)c([N+](=O)[O-])c4)c(Oc4cnc5[nH]ccc5c4)c3)CC2)=C(c2ccc(Cl)cc2)C1 [Venetoclax] (first compound max 1 µM, 7x7, partner max 1 µM)	0.822	0.693
COc1cc2c(cc1OCCCCCOc1cc3c(cc1OC)C(=O)N1C=C(C)C[C@H]1C=N3)N=C[C@@H]1CC(C)=CN1C2=O [SG3199] + O=C(c1cc(Cc2n[nH]c(=O)c3ccccc23)ccc1F)N1CCN(C(=O)C2CC2)CC1 [Olaparib] (first compound max 0.001 µM, 7x7, partner max 10 µM)	0.228	0.0468
Cc1c2c(nn1C)CSCc1cc(n(C)n1)CSc1cc(c3ccccc3c1)OCCCc1c(C(=O)O)n(C)c3c-2c(Cl)ccc13 [AZD5991] + C[C@@H]1COCCN1C2=NC(=NC(=C2)C3(CC3)[S@](=N)(=O)C)C4=C5C=CNC5=NC=C4 [AZD6738] (first compound max 1 µM, 7x7, partner max 10 µM)	0.892	1
C=CCn1c(=O)c2cnc(Nc3ccc(N4CCN(C)CC4)cc3)nc2n1-c1cccc(C(C)(C)O)n1 [AZD1775] + O=C(c1cc(Cc2n[nH]c(=O)c3ccccc23)ccc1F)N1CCN(C(=O)C2CC2)CC1 [Olaparib] (first compound max 1 µM, partner max 10 µM)	0.7	0.868
COc1cccc(OCCCN)c1-c1cc(Nc2cnc(C#N)cn2)n[nH]1 [Prexasertib] + O=C(c1cc(Cc2n[nH]c(=O)c3ccccc23)ccc1F)N1CCN(C(=O)C2CC2)CC1 [Olaparib] (first compound max 1 µM, 7x7, partner max 10 µM)	0.964	1
CN(CCO)CC[C@H](CSc1ccccc1)Nc1ccc(S(=O)(=O)NC(=O)c2ccc(N3CCC([C@@H](O)c4ccccc4-c4ccc(Cl)cc4)CC3)cc2)cc1S(=O)(=O)C(F)(F)F [AZD4320] + CCN(CCO)CCCOc1ccc2c(Nc3cc(CC(=O)Nc4cccc(F)c4)[nH]n3)ncnc2c1 [AZD2811] (first compound max 1 µM, 7x7, partner max 1 µM)	0.113	0.978
CN(CCO)CC[C@H](CSc1ccccc1)Nc1ccc(S(=O)(=O)NC(=O)c2ccc(N3CCC([C@@H](O)c4ccccc4-c4ccc(Cl)cc4)CC3)cc2)cc1S(=O)(=O)C(F)(F)F [AZD4320] + Cn1cnc2c(F)c(Nc3ccc(Br)cc3Cl)c(C(=O)NOCCO)cc21 [Selumetinib] (first compound max 1 µM, 7x7, partner max 3 µM)	0.389	1
Cc1c2c(nn1C)CSCc1cc(n(C)n1)CSc1cc(c3ccccc3c1)OCCCc1c(C(=O)O)n(C)c3c-2c(Cl)ccc13 [AZD5991] + Cn1cnc2c(F)c(Nc3ccc(Br)cc3Cl)c(C(=O)NOCCO)cc21 [Selumetinib] (first compound max 1 µM, 7x7, partner max 3 µM)	0.76	1
COc1cccc(OCCCN)c1-c1cc(Nc2cnc(C#N)cn2)n[nH]1 [Prexasertib] + Cc1cc2ncnn2cc1Nc1ncc2c(n1)n(C1CCOCC1)c(=O)n2C [AZD7648] (first compound max 1 µM, 7x7, partner max 10 µM)	1	1
COc1cccc(OCCCN)c1-c1cc(Nc2cnc(C#N)cn2)n[nH]1 [Prexasertib] + CN(C)CCCOc1ccc(-c2ccc3ncc4c(c3c2)n(C2CCOCC2)c(=O)n4C)cn1 [AZD0156] (first compound max 1 µM, 7x7, partner max 1 µM)	1	1
CN(CCO)CC[C@H](CSc1ccccc1)Nc1ccc(S(=O)(=O)NC(=O)c2ccc(N3CCC([C@@H](O)c4ccccc4-c4ccc(Cl)cc4)CC3)cc2)cc1S(=O)(=O)C(F)(F)F [AZD4320] + Cc1cc2ncnn2cc1Nc1ncc2c(n1)n(C1CCOCC1)c(=O)n2C [AZD7648] (first compound max 1 µM, 7x7, partner max 10 µM)	0.0273	0.99
CN(C)CCCOc1ccc(-c2ccc3ncc4c(c3c2)n(C2CCOCC2)c(=O)n4C)cn1 [AZD0156] + CCN(CCO)CCCOc1ccc2c(Nc3cc(CC(=O)Nc4cccc(F)c4)[nH]n3)ncnc2c1 [AZD2811] (first compound max 1 µM, 7x7, partner max 1 µM)	0.0944	0.727
COc1nnc2ccc(N3CCC(c4ccc(OCCN5CCN(C)C(=O)[C@H]5C)cc4)CC3)nn12 [AZD5153] + CN(CC[C@H](CSC1=CC=CC=C1)NC2=C(C=C(C=C2)S(=O)(=O)NC(=O)C3=CC=C(C=C3)N4CCC(CC4)[C@H](C5=CC=CC=C5C6=CC=C(C=C6)Cl)O)S(=O)(=O)C(F)(F)F)CCO [AZD4320] (first compound max 1 µM, 7x7, partner max 1 µM)		1
C[C@@H](c1ccc2nccn2c1)n1nnc2ncc(-c3cnn(C)c3)nc21 [Savolitinib] + CN(CC[C@H](CSC1=CC=CC=C1)NC2=C(C=C(C=C2)S(=O)(=O)NC(=O)C3=CC=C(C=C3)N4CCC(CC4)[C@H](C5=CC=CC=C5C6=CC=C(C=C6)Cl)O)S(=O)(=O)C(F)(F)F)CCO [AZD4320] (first compound max 1 µM, 7x7, partner max 1 µM)		0.929
